# In patent US6028053A, “Peptide inhibitors of a phosphotyrosine-binding domain containing protein” (Mount Sinai Hospital Corporation, priority 1998, dated 2000):
# Where two headings read alike, the source gives them in different places. Square brackets hold non-standard residues; d marks the D form. Ends that are not written are not given here. Peptide text beside a SMILES is read from it. pY = N[C@@H](Cc1ccc(OP(=O)(O)O)cc1)C(=O)O
# How the values were obtained:
# Shc PTB domain = biological target: T1, Shc PTB domain (Homo sapiens, UniProt P29353); experiment: Surface plasmon resonance competition of GST-Shc PTB domain binding to immobilized polyoma middle T antigen phosphopeptide
# T1 construct: containing 1 μM GST-Shc PTB domain fusion protein; made in house
# T1 sequence (P29353 156-339 limits assumed): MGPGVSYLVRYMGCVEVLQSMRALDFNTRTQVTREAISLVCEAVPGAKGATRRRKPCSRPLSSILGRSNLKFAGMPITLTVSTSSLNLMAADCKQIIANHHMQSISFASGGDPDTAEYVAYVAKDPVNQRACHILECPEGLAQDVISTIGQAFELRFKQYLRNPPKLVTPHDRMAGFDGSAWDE
# Method: Surface plasmon resonance analysis was carried out using a Biacore apparatus (Pharmacia Biosensor) as described previously (Puil et al., 1994). The peptide L-S-L-L-S-N-P-T-p.Y-S-V-M-R-S-K (SEQ ID NO:23) was immobilized to a biosensor chip through injection of a 0.5 mM solution of the phosphopeptide, in 50 mM HEPES, pH 7.5 and 2 M NaCl, across the chip surface previously activated following procedures outlined by the manufacturer. Injection of anti-phosphotyrosine antibody was used to confirm that successful immobilization of the peptide was achieved. Solutions (100 μl) containing 1 μM GST-Shc PTB domain fusion protein and the indicated concentrations of soluble phosphopeptide in 50 mM Na phosphate, pH 7.5, 150 mM NaCl, 0.1 mM EDTA, and 2 mM DTT, were injected across the surface. The amount of bound GST-Shc PTB domain was estimated from the surface plasmon resonance signal at a fixed time following the end of the injection and the percentage bound, relative to injection of GST-Shc PTB domain alone, calculated. The surface was regenerated using 2 M Guanidinium-HCl.
# [1] = biological target: T2, Shc PTB domain (GST-ShcB) binding to activated EGF-R (Homo sapiens, UniProt P29353); experiment: In vitro binding assay: competitive inhibition of EGF receptor binding to GST-ShcB in HER14 lysates; settings: FIG. 10 Panel A; for inhibition of association of Shc and EGF-R: dose response, cyclic peptides, 5 μM
# T2 construct: made in house
# T2 sequence (P29353 156-339 limits assumed): T1 sequence (P29353 156-339 limits assumed)
# Method: HER14 cells (3T3 cells expressing EGF-R) were starved in 0.5% CS media for 24 hours and stimulated with 100 ng/ml EGF for 5 min. Cells were lysed and mixed with GST, GST-ShcB or GST-R175M beads. Proteins which bound to beads were resolved on SDS-PAGE and detected by anti-phospho-Tyr antibody (4G10) or by anti-EGF-R.
# The peptides listed in Table 2 were added to cell lysates at 5 μM, incubated for 30 min., and treated with GST-ShcB beads. Proteins bound to GST-ShcB were detected by anti-phospho-Tyr antibody. […] The experiment was repeated with the peptides dissolved in DMSO (FIG. 9).
# cells = experiment: Peptide localization in cells (anti-phospho-Tyr immunofluorescence); format: cell-based
# Method: To examine peptide localization, cells were treated with P-1 or P-2 peptide for 4 hours, stained with anti-phospho-Tyr and rhodamine-conjugated antibody, and observed with a confocal microscope. A Z-scan was carried out to make images in each 0.15 μm section from the top of the cells to the bottom. […] Cells treated with P-1 peptide were not stained by anti-phospho-Tyr antibody, confirming the specifity of the immunofluoroscence staining. In a time course analysis, cells were serum-starved for 24 hours, and incubated with peptide (5 μM) for various time periods. Cells were stained by anti-phosphoro-Tyr antibody and analyzed under an immunofluoroscence microscope. Cells treated with P-2 peptide retained phospho-peptide for up to 24 hrs. In a dose response experiment, cells were starved in serum-free medium for 24 hours, cultured with peptide at various concentrations, and stained with anti-phospho-tyrosine antibody (4G10) to detect the peptide containing phospho-tyrosine residue (red) and by Hoechst 33258 for nuclei (blue). P-2 peptide was detected at 0.5 μM and 1 μM in cells .
# [2] = peptide concentration inhibiting by 50% binding of 1 μM GST-Shc PTB domain to immobilized polyoma middle T antigen phosphopeptide, read-out: IC 50
Compound,IC50 (Shc PTB domain; [2]) [nM],IC50 (Shc PTB domain) [nM],further results
"CC[C@H](C)[C@H](NC(=O)[C@@H](NC(=O)[C@@H](N)Cc1c[nH]cn1)[C@@H](C)CC)C(=O)N[C@@H](CCC(=O)O)C(=O)N[C@@H](CC(N)=O)C(=O)N1CCC[C@H]1C(=O)N[C@@H](CCC(N)=O)C(=O)N[C@@H](Cc1ccc(OP(=O)(O)O)cc1)C(=O)N[C@@H](Cc1ccccc1)C(=O)N[C@@H](CO)C(=O)N[C@@H](CC(=O)O)C(=O)O [H-I-I-E-N-P-Q-P.Y-F-S-D, His-Ile-Ile-Glu-Asn-Pro-Gln-P.Tyr-Phe-Ser-Asp] (H-HIIENPQ[pY]FSD-OH)",,175,
"NC(=O)CC[C@@H]1NC(=O)[C@@H]2CCCN2C(=O)[C@H](CC(N)=O)NC(=O)CNC(=O)CNC(=O)[C@H](Cc2ccc(OP(=O)(O)O)cc2)NC1=O [C-5, Cyclo-(NPQpYGG)] (cyclo(GGNPQ[pY]))",,,inhibition of association of Shc and EGF-R [1]: did not inhibit
"CC(C)C[C@H](NC(=O)[C@H](Cc1ccc(OP(=O)(O)O)cc1)NC(=O)[C@H](CCC(=O)O)NC(=O)[C@@H]1CCCN1C(=O)[C@H](CC(N)=O)NC(=O)[C@H](CO)NC(=O)[C@H](CO)NC(=O)[C@H](C)NC(=O)[C@@H](N)Cc1ccc(O)cc1)C(=O)N[C@@H](CO)C(=O)N[C@@H](C)C(=O)O [Y-A-S-S-N-P-E-P.Y-L-S-A, Y-A-S-S-N-P-E-p.Y-L-S-A] (H-YASSNPE[pY]LSA-OH)",7000,,
"C[C@H](NC(=O)[C@H](C)NC(=O)[C@@H](N)Cc1c[nH]cn1)C(=O)N[C@@H](CCC(=O)O)C(=O)N[C@@H](CC(N)=O)C(=O)N1CCC[C@H]1C(=O)N[C@@H](CCC(N)=O)C(=O)N[C@@H](Cc1ccc(OP(=O)(O)O)cc1)C(=O)N[C@@H](Cc1ccccc1)C(=O)N[C@@H](CO)C(=O)N[C@@H](CC(=O)O)C(=O)O [H-A-A-E-N-P-Q-P.Y-F-S-D, H-A-A-E-N-P-Q-p.Y-F-S-D] (H-HAAENPQ[pY]FSD-OH)",,475,
"C[C@H](NC(=O)[C@@H](N)Cc1c[nH]cn1)C(=O)N[C@@H](CO)C(=O)N[C@@H](CCC(=O)O)C(=O)N[C@@H](CC(N)=O)C(=O)N1CCC[C@H]1C(=O)N[C@@H](CCC(N)=O)C(=O)N[C@@H](Cc1ccc(OP(=O)(O)O)cc1)C(=O)N[C@@H](Cc1ccccc1)C(=O)N[C@@H](CO)C(=O)N[C@@H](CC(=O)O)C(=O)O [H-A-S-E-N-P-Q-P.Y-F-S-D, H-A-S-E-N-P-Q-p.Y-F-S-D] (H-HASENPQ[pY]FSD-OH)",15000,,
"CC[C@H](C)[C@H](NC(=O)[C@@H](NC(=O)[C@@H](N)Cc1c[nH]cn1)[C@@H](C)CC)C(=O)N[C@@H](CCC(=O)O)C(=O)N[C@@H](C)C(=O)N1CCC[C@H]1C(=O)N[C@@H](CCC(N)=O)C(=O)N[C@@H](Cc1ccc(OP(=O)(O)O)cc1)C(=O)N[C@@H](Cc1ccccc1)C(=O)N[C@@H](CO)C(=O)N[C@@H](CC(=O)O)C(=O)O [H-I-I-E-A-P-Q-P.Y-F-S-D, His-Ile-Ile-Glu-Ala-Pro-Gln-P.Tyr-Phe-Ser-Asp] (H-HIIEAPQ[pY]FSD-OH)",80000,,
"CC[C@H](C)[C@H](NC(=O)[C@H](C)NC(=O)[C@@H](N)Cc1c[nH]cn1)C(=O)N[C@@H](CCC(=O)O)C(=O)N[C@@H](CC(N)=O)C(=O)N1CCC[C@H]1C(=O)N[C@@H](CCC(N)=O)C(=O)N[C@@H](Cc1ccc(OP(=O)(O)O)cc1)C(=O)N[C@@H](Cc1ccccc1)C(=O)N[C@@H](CO)C(=O)N[C@@H](CC(=O)O)C(=O)O [H-A-I-E-N-P-Q-P.Y-F-S-D, His-Ala-Ile-Glu-Asn-Pro-Gln-P.Tyr-Phe-Ser-Asp] (H-HAIENPQ[pY]FSD-OH)",,20,
"CC[C@H](C)[C@@H]1NC(=O)CNC(=O)[C@@H]2CCCN2C(=O)[C@H](CO)NC(=O)[C@H](Cc2ccccc2)NC(=O)[C@H](Cc2ccc(OP(=O)(O)O)cc2)NC(=O)[C@H](CCC(N)=O)NC(=O)[C@@H]2CCCN2C(=O)[C@H](CC(N)=O)NC(=O)[C@H](CCC(=O)O)NC1=O [C-1, Cyclo-(IENPQpYFSPG)] (cyclo(ENPQ[pY]FSPGI))",,,"inhibition at 100 µM ([1]; 100 μM, read-out: inhibition of association of Shc and EGF-R): ~50%"
"CC[C@H](C)[C@H](NC(=O)[C@H](CCCCN)NC(=O)[C@@H](NC(=O)[C@H](CCC(N)=O)NC(=O)[C@@H](N)CCCNC(=N)N)[C@@H](C)CC)C(=O)N[C@@H](Cc1c[nH]c2ccccc12)C(=O)N[C@@H](Cc1ccccc1)C(=O)N[C@@H](CCC(N)=O)C(=O)N[C@@H](CC(N)=O)C(=O)N[C@@H](CCCNC(=N)N)C(=O)N[C@@H](CCCNC(=N)N)C(=O)N[C@@H](CCSC)C(=O)N[C@@H](CCCCN)C(=O)N[C@@H](Cc1c[nH]c2ccccc12)C(=O)N[C@@H](CCCCN)C(=O)N[C@@H](CCCCN)C(=O)N[C@@H](Cc1c[nH]cn1)C(=O)N[C@H](C(=O)N[C@H](C(=O)N[C@@H](CCC(=O)O)C(=O)N[C@@H](CC(N)=O)C(=O)N1CCC[C@H]1C(=O)N[C@@H](CCC(N)=O)C(=O)N[C@@H](Cc1ccc(OP(=O)(O)O)cc1)C(=O)N[C@@H](Cc1ccccc1)C(=O)N[C@@H](CO)C(=O)N[C@@H](CC(=O)O)C(=O)O)[C@@H](C)CC)[C@@H](C)CC [P-2, RQIKIWFQNRRMKWKK-HIIENPQpYFSD] (H-RQIKIWFQNRRMKWKKHIIENPQ[pY]FSD-OH)",,,"peptide localization in cells (cells; cells treated 4 hours, anti-phospho-Tyr staining, confocal microscope): localized in the cytoplasm of cells, and not in the nucleus; detection of peptide in cells by anti-phospho-tyrosine staining (cells; dose response, 0.5 μM and 1 μM (concentrations up to 1 μM)): detected; retention of phospho-peptide in cells (cells; time course, peptide 5 μM, serum-starved cells): up to 24 hrs"
CC[C@H](C)[C@H](N)C(=O)N[C@@H](CCC(=O)O)C(=O)N[C@@H](CC(N)=O)C(=O)N1CCC[C@H]1C(=O)N[C@@H](CCC(N)=O)C(=O)N[C@@H](Cc1ccc(OP(=O)(O)O)cc1)C(=O)N[C@@H](Cc1ccccc1)C(=O)N[C@@H](CO)C(=O)N[C@@H](CC(=O)O)C(=O)O [IENPQpYFSD] (H-IENPQ[pY]FSD-OH),,4000,
"CC[C@H](C)[C@H](NC(=O)[C@H](C)NC(=O)[C@@H](N)Cc1ccc(O)cc1)C(=O)N[C@@H](CO)C(=O)N[C@@H](CC(N)=O)C(=O)N1CCC[C@H]1C(=O)N[C@@H](CCC(=O)O)C(=O)N[C@@H](Cc1ccc(OP(=O)(O)O)cc1)C(=O)N[C@@H](CC(C)C)C(=O)N[C@@H](CO)C(=O)N[C@@H](C)C(=O)O [Y-A-I-S-N-P-E-P.Y-L-S-A, Tyr-Ala-Ile-Ser-Asn-Pro-Glu-P.Tyr-Leu-Ser-Ala] (H-YAISNPE[pY]LSA-OH)",90,,
"CC[C@H](C)[C@H](NC(=O)[C@@H](N)Cc1c[nH]cn1)C(=O)N[C@@H](C)C(=O)N[C@@H](CCC(=O)O)C(=O)N[C@@H](CC(N)=O)C(=O)N1CCC[C@H]1C(=O)N[C@@H](CCC(N)=O)C(=O)N[C@@H](Cc1ccc(OP(=O)(O)O)cc1)C(=O)N[C@@H](Cc1ccccc1)C(=O)N[C@@H](CO)C(=O)N[C@@H](CC(=O)O)C(=O)O [H-I-A-E-N-P-Q-P.Y-F-S-D, His-Ile-Ala-Glu-Asn-Pro-Gln-P.Tyr-Phe-Ser-Asp] (H-HIAENPQ[pY]FSD-OH)",,250,
"RQIKIWFQNRRMKWKKHIIENPQYFSD [P-1, RQIKIWFQNRRMKWKK-HIIENPQYFSD]",,,peptide localization in cells (cells): not stained
"NC(=O)CC[C@@H]1NC(=O)[C@@H]2CCCN2C(=O)[C@H](CC(N)=O)NC(=O)[C@H](Cc2ccc(OP(=O)(O)O)cc2)NC1=O [C-3, Cyclo-(NPQpY)] (cyclo(NPQ[pY]))",,,inhibition of association of Shc and EGF-R [1]: did not inhibit
"CC[C@H](C)[C@H](NC(=O)[C@@H](NC(=O)[C@@H](N)Cc1c[nH]cn1)[C@@H](C)CC)C(=O)N[C@@H](CCC(=O)O)C(=O)N[C@@H](CC(N)=O)C(=O)N[C@@H](C)C(=O)N[C@@H](CCC(N)=O)C(=O)N[C@@H](Cc1ccc(OP(=O)(O)O)cc1)C(=O)N[C@@H](Cc1ccccc1)C(=O)N[C@@H](CO)C(=O)N[C@@H](CC(=O)O)C(=O)O [H-I-I-E-N-A-Q-P.Y-F-S-D, His-Ile-Ile-Glu-Asn-Ala-Gln-P.Tyr-Phe-Ser-Asp] (H-HIIENAQ[pY]FSD-OH)",2500,,
"NC(=O)CC[C@@H]1NC(=O)[C@@H]2CCCN2C(=O)[C@H](CC(N)=O)NC(=O)CNC(=O)[C@H](Cc2ccc(OP(=O)(O)O)cc2)NC1=O [C-4, Cyclo-(NPQpYG)] (cyclo(GNPQ[pY]))",,,inhibition of association of Shc and EGF-R [1]: did not inhibit
